Experimental data as given in ChEMBL document CHEMBL4342427, “A new chemotype with promise against Trypanosoma cruzi” (Bioorg Med Chem Lett, 2020).
Converted amounts (≈) assume the structure as drawn. The source made the active and inactive calls. The calls are words filed in the database; no cut-off is given here.

Experiments:
[1] = system: Trypanosoma cruzi; experiment: Antitrypanosomal activity against Trypanosoma cruzi Tulahuen 20A trypomastigote expressing GFP infected in BALB/c mouse cardiomyocytes assessed as reduction in parasitemia measured after 72 hrs by fluorescence assay; assay type: functional, organism-based
[2] = system: Trypanosoma cruzi; experiment: Antitrypanosomal activity against Trypanosoma cruzi Tulahuen C4 trypomastigotes infected in rat L6 cells measured after 96 hrs by inverted microscopy analysis; assay type: functional, organism-based; settings: Tulahuen C4, L6, 96 h
[3] = system: Plasmodium falciparum; experiment: Antiprotozoal activity against Plasmodium falciparum NF54 assessed as reduction in [3H]hypoxanthine incorporation preincubated for 48 hrs followed by [3H]hypoxanthine addition and measured after 24 hrs by liquid scintillation counting method; assay type: functional, organism-based
[4] = system: Trypanosoma brucei rhodesiense; experiment: Antiprotozoal activity against Trypanosoma brucei rhodesiense STIB900 […] assessed as growth inhibition after 72 hrs by Alamar Blue dye-based fluorometric analysis; assay type: functional, organism-based; settings: STIB900, 72 h
[5] = system: Leishmania donovani; experiment: Antileishmanial activity against Leishmania donovani MHOM/ET/67/L82 amastigotes assessed as growth inhibition after 72 hrs by plate reader based Alamar blue assay; assay type: functional, organism-based; settings: MHOM/ET/67/L82, 72 h
[6] = system: Toxoplasma gondii; experiment: Antiparasitic activity against Toxoplasma gondii RH transfected with fluorescent transgene dTom; assay type: functional, organism-based
[7] = system: HFF; experiment: Cytotoxicity against human HFF cells assessed as cell growth inhibition; assay type: cell-based
[8] = system: U2OS; experiment: Cytotoxicity against human U2OS cells assessed as cell growth inhibition; assay type: cell-based
[9] = system: HEK-293T; experiment: Cytotoxicity against human HEK293T cells assessed as cell growth inhibition; assay type: cell-based
[10] = Cytotoxicity against human HC04 cells assessed as cell growth inhibition; assay type: cell-based
[11] = n-octanol/aqueous buffer distribution coefficient, log D of compound at pH 7.4 by HPLC analysis; assay type: physicochemical
[12] = Intrinsic clearance in human liver microsomes assessed per mg protein measured up to 60 mins in presence of NADPH; assay type: ADME, Microsome; settings: for microsomal CLint: liver microsomes
[13] = Intrinsic clearance in mouse liver microsomes assessed per mg protein measured up to 60 mins in presence of NADPH; assay type: ADME, Microsome; settings: 1 h
[14] = Protein binding in human plasma by HPLC analysis; assay type: ADME, cell-free
[15] = biological target: T1, Sterol 14-alpha demethylase (Trypanosoma cruzi (strain CL Brener), UniProt Q7Z1V1); experiment: (§1) Binding affinity to full length Trypanosoma cruzi Tulahuen C4 C-terminal His-tagged CYP51 expressed in Escherichia coli HMS174 (DE3) assessed as induction of shift in Soret band by spectrophotometry
[16] = biological target: T1, Sterol 14-alpha demethylase; experiment: Inhibition of Trypanosoma cruzi Tulahuen C4 CYP51 expressed in Escherichia coli HMS174 using [3H]-sterol as substrate in presence of NADPH by reversed phase HPLC analysis
[17] = Kinetic solubility in phosphate buffer at pH 6.5 by nephelometry; settings: read-out: Kinetic_solubility
[18] = Ratio of IC50 for antiprotozoal activity against Plasmodium falciparum NF54 assessed as reduction in [3H]hypoxanthine incorporation preincubated for 48 hrs followed by [3H]hypoxanthine addition and measured after 24 hrs by liquid scintillation counting method to IC50 for antitrypanosomal activity against Trypanosoma cruzi Tulahuen C4 trypomastigotes infected in rat L6 cells measured after 96 hrs …; assay type: functional
[19] = Ratio of IC50 for antiprotozoal activity against Trypanosoma brucei rhodesiense STIB900 […] assessed as growth inhibition after 72 hrs by Alamar Blue dye-based fluorometric analysis to IC50 for antitrypanosomal activity against Trypanosoma cruzi Tulahuen C4 trypomastigotes infected in rat L6 cells measured after 96 hrs by inverted microscopy analysis; assay type: functional
[20] = Kinetic solubility in 0.01M HCl at pH 2 by nephelometry; settings: read-out: Kinetic_solubility
[21] = biological target: Sterol 14-alpha demethylase (Trypanosoma cruzi (strain CL Brener)) (UniProt Q7Z1V1); experiment: as §1
Chain of Sterol 14-alpha demethylase (Trypanosoma cruzi (strain CL Brener)) (Q7Z1V1 whole entry, looked up): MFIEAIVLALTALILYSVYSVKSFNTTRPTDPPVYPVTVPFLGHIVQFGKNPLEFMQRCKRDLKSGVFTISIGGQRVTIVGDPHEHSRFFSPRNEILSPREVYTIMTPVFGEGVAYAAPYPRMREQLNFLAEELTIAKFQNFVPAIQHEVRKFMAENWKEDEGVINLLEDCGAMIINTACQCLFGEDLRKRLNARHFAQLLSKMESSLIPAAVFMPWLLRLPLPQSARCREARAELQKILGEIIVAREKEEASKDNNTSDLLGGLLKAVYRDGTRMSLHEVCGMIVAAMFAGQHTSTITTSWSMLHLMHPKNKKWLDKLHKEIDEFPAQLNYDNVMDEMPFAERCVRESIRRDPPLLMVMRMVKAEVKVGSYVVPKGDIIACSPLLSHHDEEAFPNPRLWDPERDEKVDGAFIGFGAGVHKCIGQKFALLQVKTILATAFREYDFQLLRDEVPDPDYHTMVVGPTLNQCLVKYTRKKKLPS

T1 sequence (Q7Z1V1 whole entry): as the sequence (Q7Z1V1 whole entry, looked up) above

CC[C@@H]([C@H](C)O)n1ncn(-c2ccc(N3CCN(c4ccc(OC[C@@H]5CO[C@@](Cn6cncn6)(c6ccc(F)cc6F)C5)cc4)CC3)cc2)c1=O [POSACONAZOLE]
IC50 [1]: 0.005 µM

C[C@@H]1CN(c2ccc(S(=O)(=O)NCc3ccc(C(=O)Nc4cccnc4)cc3)cc2)C[C@H](C)N1
IC50 [2]: 130 µM

CN1CCN(c2ccc(C(=O)NCc3ccc(C(=O)Nc4cccnc4)cc3)cc2)CC1
IC50 [2]: 120 µM

O=C(Nc1cccnc1)c1ccc(CNS(=O)(=O)c2ccc(N3CCC(O)CC3)cc2)cc1
IC50 [2]: 120 µM

CCOC(=O)N1CCN(c2ccc(S(=O)(=O)NCc3ccc(C(=O)Nc4cccnc4)cc3)cc2)CC1
IC50 [2]: 46 µM

CN1CCN(c2ccc(S(=O)(=O)NCc3ccc(C(=O)Nc4ccncc4)cc3)cc2)CC1
IC50 [2]: 28 µM

O=C(Nc1cccnc1)c1ccc(CNS(=O)(=O)c2ccc(N3CCC3)cc2)cc1
IC50 [2]: 8.3 µM

CN1CCN(c2ccc(S(=O)(=O)NCc3ccc(C(=O)Nc4cccnc4)cc3)cc2)CC1
IC50 [3]: 10 µM | IC50 [4]: 32 µM | IC50 [5]: > 200 µM | IC50 [6]: > 100 µM | IC50 [2]: 0.007 µM | IC50 [7]: > 50 µM | IC50 [8]: 0.15 µM | IC50 [9]: 0.36 µM | IC50 [10]: > 50 µM | logD [11]: 2.8 | microsomal CLint [12]: 45 µL/min/mg | CLint [13]: 112 µL/min/mg | PPB [14]: 85.2% | Kd [15]: 1.32 µM | IC50 [16]: 49 µM | solubility kinetic [17]: 25 to 50 µg/mL (≈ 53.7 to 107 µM)

CN1CCN(c2ccc(S(=O)(=O)NCc3ccc(C(=O)Nc4cncnc4)cc3)cc2)CC1
IC50 [2]: 96 µM

Cc1ccc(NC(=O)c2ccc(CNS(=O)(=O)c3ccc(N4CCN(C)CC4)cc3)cc2)cn1
IC50 [2]: 88 µM

Cc1ccc(NC(=O)c2ccc(CNS(=O)(=O)c3ccc(N4CCN(C)CC4)cc3)cc2)c(C)n1
IC50 [2]: 110 µM

O=C(Nc1cccnc1)c1ccc(CNS(=O)(=O)c2ccc(N3CCCCC3)cc2)cc1
IC50 [2]: 110 µM

CN1CCN(c2ccc(S(=O)(=O)NCc3ccc(-c4nc(-c5cccnc5)no4)cc3)cc2)CC1
IC50 [3]: 5.8 µM | IC50 [4]: 3.4 µM | IC50 [5]: 49 µM | IC50 [6]: 21 µM | IC50 [2]: 1.2 µM | IC50 [7]: > 50 µM | IC50 [8]: 28 µM | IC50 [9]: 42 µM | IC50 [10]: > 50 µM | logD [11]: 4.1 | CLint ([12]; microsomes, 1 h): 535 µL/min/mg | CLint [13]: 677 µL/min/mg | solubility kinetic [17]: 25 to 50 µg/mL (≈ 51 to 102 µM)

CN1CCN(c2ccc(S(=O)(=O)NCc3ccc(C(=O)Nc4ccc(C#N)nc4)cc3)cc2)CC1
IC50 [2]: 100 µM

CN1CCN(c2ccc(S(=O)(=O)NC[C@H]3CC[C@H](C(=O)Nc4cccnc4)CC3)cc2)CC1
IC50 [2]: 120 µM

CN1CCN(c2ccc(S(=O)(=O)NCc3ccc(C(=O)Nc4cnccn4)cc3)cc2)CC1
IC50 [2]: 17 µM

O=C(Nc1cccnc1)c1ccc(CNS(=O)(=O)c2ccc(N3CCOCC3)cc2)cc1
IC50 [3]: 21 µM | IC50 [4]: 25 µM | IC50 [5]: 180 µM | IC50 [6]: > 100 µM | IC50 [2]: 2.1 µM | IC50 [7]: 2 µM | IC50 [8]: 0.16 µM | IC50 [9]: 0.95 µM | IC50 [10]: > 50 µM | logD [11]: 2.6 | microsomal CLint [12]: 69 µL/min/mg | CLint [13]: 200 µL/min/mg | PPB [14]: 76.2% | Ratio IC50 [18]: 10 | Ratio IC50 [19]: 10 | solubility kinetic [20]: 50 to 100 µg/mL (≈ 110 to 221 µM) | solubility kinetic [17]: 12.5 to 25 µg/mL (≈ 27.6 to 55.2 µM)

O=C(Nc1cccnc1)c1ccc(CNS(=O)(=O)c2ccc(N3CCNCC3)cc2)cc1
IC50 [2]: 69 µM

Cc1ncccc1NC(=O)c1ccc(CNS(=O)(=O)c2ccc(N3CCN(C)CC3)cc2)cc1
IC50 [2]: 65 µM | Activity [21]: inactive | IC50 [16]: 487 µM
